In ChEMBL document CHEMBL1154277, “Discovery of N-substituted pyridinones as potent and selective inhibitors of p38 kinase” (Bioorg Med Chem Lett, 2009):

Assays:
[1] = target: Serine/threonine-protein kinase pim-1 (Homo sapiens) (UniProt P11309); test: Inhibition of PIM1 at 10 uM
[2] = target: Calcium/calmodulin-dependent protein kinase type IV (Homo sapiens) (UniProt Q16566); test: Inhibition of CAMK4 at 10 uM
[3] = target: Dual specificity tyrosine-phosphorylation-regulated kinase 3 (Homo sapiens) (UniProt O43781); test: Inhibition of DYRK3 at 10 uM
[4] = target: Dual specificity protein kinase CLK1 (Homo sapiens) (UniProt P49759); test: Inhibition of CLK1 at 10 uM
[5] = target: Serine/threonine-protein kinase PAK 3 (Homo sapiens) (UniProt O75914); test: Inhibition of PAK3 at 10 uM
[6] = tested on: Tyrosine-protein kinase ABL1 (Homo sapiens), P00519 [E255K]; test: Inhibition of ABL1 E255K (mutant) at 10 uM
[7] = target: Vascular endothelial growth factor receptor 1 (Homo sapiens) (UniProt P17948); test: Inhibition of FLT1 at 10 uM
[8] = target: Interleukin-1 receptor-associated kinase 4 (Homo sapiens) (UniProt Q9NWZ3); test: Inhibition of IRAK4 at 10 uM
[9] = target: Protein kinase C gamma type (Homo sapiens) (UniProt P05129); test: Inhibition of PKCgamma at 10 uM
[10] = target: Tyrosine-protein kinase Lyn (Homo sapiens) (UniProt P07948); test: Inhibition of LYN B at 10 uM
[11] = target: Aurora kinase A (Homo sapiens) (UniProt O14965); test: Inhibition of Aurora A at 10 uM
[12] = target: Myosin light chain kinase 2, skeletal/cardiac muscle (Homo sapiens) (UniProt Q9H1R3); test: Inhibition of MYLK2 at 10 uM
[13] = tested on: Platelet-derived growth factor receptor alpha (Homo sapiens), P16234 [D842V]; test: Inhibition of PDGFRalpha D842V (mutant) at 10 uM
[14] = target: Aurora kinase B (Homo sapiens) (UniProt Q96GD4); test: Inhibition of Aurora B at 10 uM
[15] = target: Casein kinase I isoform gamma-2 (Homo sapiens) (UniProt P78368); test: Inhibition of CSNK1G2 at 10 uM
[16] = target: Macrophage-stimulating protein receptor (Homo sapiens) (UniProt Q04912); test: Inhibition of RON at 10 uM
[17] = target: Dual specificity protein kinase CLK3 (Homo sapiens) (UniProt P49761); test: Inhibition of CLK3 at 10 uM
[18] = target: Tyrosine-protein kinase Mer (Homo sapiens) (UniProt Q12866); test: Inhibition of MERTK at 10 uM
[19] = target: Serine/threonine-protein kinase PAK 2 (Homo sapiens) (UniProt Q13177); test: Inhibition of PAK2 at 10 uM
[20] = target: Dual specificity tyrosine-phosphorylation-regulated kinase 4 (Homo sapiens) (UniProt Q9NR20); test: Inhibition of DYRK4 at 10 uM
[21] = target: Serine/threonine-protein kinase D1 (Homo sapiens) (UniProt Q15139); test: Inhibition of PKCmu at 10 uM
[22] = target: Cyclin-dependent kinase 5/CDK5 activator 1 (Homo sapiens) (UniProt Q00535+Q15078); test: Inhibition of CDK5/p35 at 10 uM; type: protein-complex assay
[23] = target: RAF proto-oncogene serine/threonine-protein kinase (Homo sapiens) (UniProt P04049); test: Inhibition of cRAF at 10 uM
[24] = target: Tyrosine-protein kinase receptor UFO (Homo sapiens) (UniProt P30530); test: Inhibition of AXL at 10 uM
[25] = target: Tyrosine-protein kinase Fer (Homo sapiens) (UniProt P16591); test: Inhibition of FER at 10 uM
[26] = target: Tyrosine-protein kinase Lck (Homo sapiens) (UniProt P06239); test: Inhibition of LCK at 10 uM
[27] = target: Ephrin type-B receptor 1 (Homo sapiens) (UniProt P54762); test: Inhibition of EPHB1 at 10 uM
[28] = target: SRSF protein kinase 1 (Homo sapiens) (UniProt Q96SB4); test: Inhibition of SRPK1 at 10 uM
[29] = target: Serine/threonine-protein kinase D2 (Homo sapiens) (UniProt Q9BZL6); test: Inhibition of PKD2 at 10 uM
[30] = target: Calcium/calmodulin-dependent protein kinase type II subunit beta (Homo sapiens) (UniProt Q13554); test: Inhibition of CAMK2beta at 10 uM
[31] = target: Serine/threonine-protein kinase Sgk2 (Homo sapiens) (UniProt Q9HBY8); test: Inhibition of SGK2 at 10 uM
[32] = target: Ribosomal protein S6 kinase alpha-1 (Homo sapiens) (UniProt Q15418); test: Inhibition of RSK1 at 10 uM
[33] = tested on: Tyrosine-protein kinase ABL1 (Homo sapiens), P00519 [G250E]; test: Inhibition of ABL1 G250E (mutant) at 10 uM
[34] = target: Phosphorylase b kinase gamma catalytic chain, liver/testis isoform (Homo sapiens) (UniProt P15735); test: Inhibition of PHKgamma2 at 10 uM
[35] = target: G protein-coupled receptor kinase 6 (Homo sapiens) (UniProt P43250); test: Inhibition of GRK6 at 10 uM
[36] = target: Rhodopsin kinase GRK7 (Homo sapiens) (UniProt Q8WTQ7); test: Inhibition of GRK7 at 10 uM
[37] = tested on: Epidermal growth factor receptor (Homo sapiens), P00533 [L858R]; test: Inhibition of EGFR L858R (mutant) at 10 uM; type: protein assay
[38] = target: Serine/threonine-protein kinase PAK 1 (Homo sapiens) (UniProt Q13153); test: Inhibition of PAK1 at 10 uM
[39] = target: Ephrin type-B receptor 2 (Homo sapiens) (UniProt P29323); test: Inhibition of EPHB2 at 10 uM
[40] = target: Protein-tyrosine kinase 2-beta (Homo sapiens) (UniProt Q14289); test: Inhibition of FAK2 at 10 uM
[41] = target: Mitogen-activated protein kinase 11 (Homo sapiens) (UniProt Q15759); test: Inhibition of p38beta at 10 uM
[42] = target: Serine/threonine-protein kinase TAO1 (Homo sapiens) (UniProt Q7L7X3); test: Inhibition of TAO1 at 10 uM
[43] = target: Fibroblast growth factor receptor 3 (Homo sapiens) (UniProt P22607); test: Inhibition of FGFR3 at 10 uM
[44] = target: Receptor tyrosine-protein kinase erbB-4 (Homo sapiens) (UniProt Q15303); test: Inhibition of ERBB4 at 10 uM
[45] = target: PAS domain-containing serine/threonine-protein kinase (Homo sapiens) (UniProt Q96RG2); test: Inhibition of PASK at 10 uM
[46] = target: Homeodomain-interacting protein kinase 1 (Homo sapiens) (UniProt Q86Z02); test: Inhibition of HIPK1 at 10 uM
[47] = target: Protein kinase C beta type (Homo sapiens) (UniProt P05771); test: Inhibition of PKCbeta2 at 10 uM
Protein kinase C beta type (Homo sapiens), sequence (P05771 2-671 limits assumed): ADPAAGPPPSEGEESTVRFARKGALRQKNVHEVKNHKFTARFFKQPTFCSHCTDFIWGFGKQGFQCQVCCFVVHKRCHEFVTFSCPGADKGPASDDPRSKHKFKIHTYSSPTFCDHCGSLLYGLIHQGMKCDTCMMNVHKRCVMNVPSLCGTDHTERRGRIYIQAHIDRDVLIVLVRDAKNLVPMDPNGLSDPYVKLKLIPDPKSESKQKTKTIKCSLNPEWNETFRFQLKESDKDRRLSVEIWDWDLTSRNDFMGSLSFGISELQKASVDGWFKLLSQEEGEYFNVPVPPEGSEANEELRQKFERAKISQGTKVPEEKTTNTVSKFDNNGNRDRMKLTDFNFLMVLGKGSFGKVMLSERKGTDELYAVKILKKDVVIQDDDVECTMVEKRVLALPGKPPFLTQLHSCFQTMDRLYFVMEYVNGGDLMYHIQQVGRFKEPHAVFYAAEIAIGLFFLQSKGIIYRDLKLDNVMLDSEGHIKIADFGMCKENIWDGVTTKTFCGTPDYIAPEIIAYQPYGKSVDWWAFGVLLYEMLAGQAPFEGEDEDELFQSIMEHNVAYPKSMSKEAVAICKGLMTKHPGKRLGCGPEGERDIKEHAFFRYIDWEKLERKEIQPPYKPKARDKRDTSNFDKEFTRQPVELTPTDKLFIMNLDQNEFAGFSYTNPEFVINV

Serine/threonine-protein kinase PAK 1 (Homo sapiens), sequence (Q13153 whole entry): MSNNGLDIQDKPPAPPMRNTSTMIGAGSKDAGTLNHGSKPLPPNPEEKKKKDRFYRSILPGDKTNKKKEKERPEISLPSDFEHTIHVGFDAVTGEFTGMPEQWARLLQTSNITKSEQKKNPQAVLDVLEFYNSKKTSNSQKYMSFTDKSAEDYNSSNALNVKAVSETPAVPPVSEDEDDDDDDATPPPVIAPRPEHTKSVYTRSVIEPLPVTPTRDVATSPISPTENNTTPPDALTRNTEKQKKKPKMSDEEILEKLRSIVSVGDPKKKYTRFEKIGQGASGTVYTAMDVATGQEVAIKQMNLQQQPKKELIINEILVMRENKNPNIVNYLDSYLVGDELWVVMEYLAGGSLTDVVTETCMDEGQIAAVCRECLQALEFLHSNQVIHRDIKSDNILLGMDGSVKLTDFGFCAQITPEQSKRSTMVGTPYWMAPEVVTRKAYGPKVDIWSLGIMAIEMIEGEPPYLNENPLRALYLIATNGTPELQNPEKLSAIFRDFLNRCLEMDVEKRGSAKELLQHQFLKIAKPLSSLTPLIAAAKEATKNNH
Protein-tyrosine kinase 2-beta (Homo sapiens), sequence (Q14289 whole entry, looked up): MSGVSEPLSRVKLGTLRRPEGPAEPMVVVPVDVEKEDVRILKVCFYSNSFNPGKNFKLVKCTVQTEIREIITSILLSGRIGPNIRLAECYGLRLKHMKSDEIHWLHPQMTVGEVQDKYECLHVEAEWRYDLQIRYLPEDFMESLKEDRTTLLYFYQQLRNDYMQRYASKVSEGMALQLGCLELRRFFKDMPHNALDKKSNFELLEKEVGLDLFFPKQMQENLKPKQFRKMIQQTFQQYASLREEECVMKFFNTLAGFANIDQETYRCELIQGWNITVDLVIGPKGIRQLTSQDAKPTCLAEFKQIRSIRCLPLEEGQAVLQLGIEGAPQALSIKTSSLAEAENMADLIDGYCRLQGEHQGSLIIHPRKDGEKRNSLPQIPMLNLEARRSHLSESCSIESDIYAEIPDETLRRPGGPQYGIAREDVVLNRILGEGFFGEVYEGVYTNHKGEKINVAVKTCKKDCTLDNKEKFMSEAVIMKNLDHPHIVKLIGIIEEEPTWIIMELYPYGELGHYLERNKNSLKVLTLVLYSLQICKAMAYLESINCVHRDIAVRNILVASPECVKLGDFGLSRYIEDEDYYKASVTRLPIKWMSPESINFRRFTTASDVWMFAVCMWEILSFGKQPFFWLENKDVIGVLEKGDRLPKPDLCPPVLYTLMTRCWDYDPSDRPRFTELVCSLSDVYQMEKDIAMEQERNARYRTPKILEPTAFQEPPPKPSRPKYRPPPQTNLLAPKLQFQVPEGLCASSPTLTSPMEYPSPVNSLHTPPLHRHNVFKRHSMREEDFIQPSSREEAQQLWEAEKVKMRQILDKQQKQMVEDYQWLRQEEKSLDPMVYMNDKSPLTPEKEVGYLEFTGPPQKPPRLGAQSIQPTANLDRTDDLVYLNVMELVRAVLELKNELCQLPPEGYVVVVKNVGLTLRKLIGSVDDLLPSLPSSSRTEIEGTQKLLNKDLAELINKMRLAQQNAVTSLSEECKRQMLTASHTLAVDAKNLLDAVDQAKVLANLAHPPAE
Calcium/calmodulin-dependent protein kinase type II subunit beta (Homo sapiens), sequence (Q13554 whole entry): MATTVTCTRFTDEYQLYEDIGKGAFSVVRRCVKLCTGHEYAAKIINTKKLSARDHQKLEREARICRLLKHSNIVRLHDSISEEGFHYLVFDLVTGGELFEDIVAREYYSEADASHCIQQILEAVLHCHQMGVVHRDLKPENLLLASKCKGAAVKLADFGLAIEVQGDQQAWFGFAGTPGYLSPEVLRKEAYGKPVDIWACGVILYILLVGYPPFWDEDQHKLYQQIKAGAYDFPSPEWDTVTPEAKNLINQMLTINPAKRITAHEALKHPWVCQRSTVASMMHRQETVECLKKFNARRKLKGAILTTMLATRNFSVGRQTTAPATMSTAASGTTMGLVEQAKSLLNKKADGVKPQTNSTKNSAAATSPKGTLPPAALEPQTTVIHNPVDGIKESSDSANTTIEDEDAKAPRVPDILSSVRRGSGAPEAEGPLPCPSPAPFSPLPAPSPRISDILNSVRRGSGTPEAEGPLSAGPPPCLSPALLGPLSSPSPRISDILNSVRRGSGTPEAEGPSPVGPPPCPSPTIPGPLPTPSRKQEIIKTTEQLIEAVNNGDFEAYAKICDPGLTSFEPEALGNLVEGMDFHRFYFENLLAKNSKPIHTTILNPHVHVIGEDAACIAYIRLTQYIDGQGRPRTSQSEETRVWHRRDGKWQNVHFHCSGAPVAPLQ
SRSF protein kinase 1 (Homo sapiens), sequence (Q96SB4 whole entry): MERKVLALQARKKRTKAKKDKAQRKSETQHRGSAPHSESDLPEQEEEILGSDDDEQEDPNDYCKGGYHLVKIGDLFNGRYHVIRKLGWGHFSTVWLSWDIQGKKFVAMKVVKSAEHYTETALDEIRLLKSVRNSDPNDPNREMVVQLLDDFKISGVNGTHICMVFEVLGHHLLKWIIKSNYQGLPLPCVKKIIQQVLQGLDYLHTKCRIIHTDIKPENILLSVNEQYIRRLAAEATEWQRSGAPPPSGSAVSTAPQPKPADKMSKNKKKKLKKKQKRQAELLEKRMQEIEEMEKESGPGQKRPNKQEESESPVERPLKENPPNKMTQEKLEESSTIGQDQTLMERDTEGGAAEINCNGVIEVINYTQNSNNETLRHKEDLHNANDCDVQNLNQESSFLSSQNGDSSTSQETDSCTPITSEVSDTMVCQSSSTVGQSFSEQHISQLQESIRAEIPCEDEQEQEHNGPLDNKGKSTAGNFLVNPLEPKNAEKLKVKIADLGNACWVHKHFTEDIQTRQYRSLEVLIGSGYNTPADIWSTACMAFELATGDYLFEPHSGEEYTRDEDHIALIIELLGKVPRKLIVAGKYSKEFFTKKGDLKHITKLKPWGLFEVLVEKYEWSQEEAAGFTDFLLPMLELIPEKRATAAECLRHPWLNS
Serine/threonine-protein kinase pim-1 (Homo sapiens), sequence (P11309 whole entry, looked up): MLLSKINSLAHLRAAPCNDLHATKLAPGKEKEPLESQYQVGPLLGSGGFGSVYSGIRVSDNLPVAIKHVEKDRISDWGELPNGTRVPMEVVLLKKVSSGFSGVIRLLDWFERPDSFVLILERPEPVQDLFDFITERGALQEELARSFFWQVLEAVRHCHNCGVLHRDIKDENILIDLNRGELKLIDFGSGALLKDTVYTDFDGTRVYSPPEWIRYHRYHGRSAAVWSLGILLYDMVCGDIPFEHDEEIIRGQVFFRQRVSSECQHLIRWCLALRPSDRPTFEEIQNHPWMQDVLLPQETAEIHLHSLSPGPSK
Serine/threonine-protein kinase Sgk2 (Homo sapiens), sequence (Q9HBY8 whole entry): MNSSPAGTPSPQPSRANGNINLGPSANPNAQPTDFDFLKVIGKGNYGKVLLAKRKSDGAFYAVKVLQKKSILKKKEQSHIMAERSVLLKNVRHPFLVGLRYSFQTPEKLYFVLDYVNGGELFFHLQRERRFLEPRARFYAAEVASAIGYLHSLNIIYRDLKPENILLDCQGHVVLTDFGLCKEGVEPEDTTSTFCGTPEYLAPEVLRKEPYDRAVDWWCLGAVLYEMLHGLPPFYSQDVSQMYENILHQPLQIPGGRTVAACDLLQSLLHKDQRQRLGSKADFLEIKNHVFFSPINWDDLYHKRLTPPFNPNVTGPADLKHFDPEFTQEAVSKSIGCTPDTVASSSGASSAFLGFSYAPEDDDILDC
Serine/threonine-protein kinase PAK 3 (Homo sapiens), sequence (O75914 whole entry, looked up): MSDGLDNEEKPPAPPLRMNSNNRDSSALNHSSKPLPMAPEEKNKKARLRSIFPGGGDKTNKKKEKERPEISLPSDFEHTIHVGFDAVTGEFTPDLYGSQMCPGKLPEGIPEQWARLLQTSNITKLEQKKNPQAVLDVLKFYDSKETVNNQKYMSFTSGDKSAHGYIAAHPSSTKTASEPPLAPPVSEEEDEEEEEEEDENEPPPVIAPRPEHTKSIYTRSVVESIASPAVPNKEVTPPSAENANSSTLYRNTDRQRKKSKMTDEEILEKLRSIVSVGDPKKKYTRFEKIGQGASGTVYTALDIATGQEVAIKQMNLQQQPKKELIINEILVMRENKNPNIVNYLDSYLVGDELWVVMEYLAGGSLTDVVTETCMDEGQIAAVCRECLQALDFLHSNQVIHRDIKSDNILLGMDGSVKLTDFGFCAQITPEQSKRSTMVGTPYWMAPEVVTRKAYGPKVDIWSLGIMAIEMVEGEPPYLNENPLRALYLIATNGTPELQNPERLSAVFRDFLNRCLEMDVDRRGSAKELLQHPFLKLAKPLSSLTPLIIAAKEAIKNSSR

Cc1cc(OCc2ccc(F)cc2F)c(Br)c(=O)n1Cc1ccc(CN(C)C)cc1
inhibition [1]: < 50% | inhibition [2]: < 50% | inhibition [3]: < 50% | inhibition [4]: < 50% | inhibition [5]: < 50% | inhibition [6]: < 50% | inhibition [7]: < 50% | inhibition [8]: < 50% | inhibition [9]: < 50% | inhibition [10]: < 50% | inhibition [11]: < 50% | inhibition [12]: < 50% | inhibition [13]: < 50% | inhibition [14]: < 50% | inhibition [15]: < 50% | inhibition [16]: < 50% | inhibition [17]: < 50% | inhibition [18]: < 50% | inhibition [19]: < 50% | inhibition [20]: < 50% | inhibition [21]: < 50% | inhibition [22]: < 50% | inhibition [23]: < 50% | inhibition [24]: < 50% | inhibition [25]: < 50% | inhibition [26]: < 50% | inhibition [27]: < 50% | inhibition [28]: < 50% | inhibition [29]: < 50% | inhibition [30]: < 50% | inhibition [31]: < 50% | inhibition [32]: < 50% | inhibition [33]: < 50% | inhibition [34]: < 50% | inhibition [35]: < 50% | inhibition [36]: < 50% | inhibition [37]: < 50% | inhibition [38]: < 50% | inhibition [39]: < 50% | inhibition [40]: < 50% | inhibition [41]: 99% | inhibition [42]: < 50% | inhibition [43]: < 50% | inhibition [44]: < 50% | inhibition [45]: < 50% | inhibition [46]: < 50% | inhibition [47]: < 50%
